According to paper PMC11470957, “Principles of paralog-specific targeted protein degradation engaging the C-degron E3 KLHDC2” (Nature Communications, 2024):
Where “and” joins values, the source holds several entries; their conditions need not be identical. Equal values may be shown once. Read-outs that look alike come from different tables or passages of the source. Each block holds one compound with its values, some of them ahead of it.

Key:
BRD4 = BRD4 (Homo sapiens, UniProt O60885); experiment: Western blot of BRD4 levels after cellular dosing; conditions: for BRD4 level, Western blot quantification (DMSO = 100): 1 uM; for BRD4 level relative to DMSO (100%): U2OS KO/Rescue, 1µM, 24 h
BRD3 = BRD3 (Homo sapiens, UniProt Q15059); experiment: Western blot of BRD3 levels after cellular dosing
BRD2 = BRD2 (Homo sapiens, UniProt P25440); experiment: Western blot of BRD2 levels after cellular dosing
KLHDC2 = molecular target: T1, KLHDC2 (Homo sapiens, UniProt Q9Y2U9); experiment: Western blot of KLHDC2 levels after cellular dosing; conditions: for KLHDC2 level, Western blot quantification (DMSO = 100): 1 uM; for KLHDC2 level relative to DMSO (100%): U2OS KO/Rescue
T1 sequence (Q9Y2U9 1-406): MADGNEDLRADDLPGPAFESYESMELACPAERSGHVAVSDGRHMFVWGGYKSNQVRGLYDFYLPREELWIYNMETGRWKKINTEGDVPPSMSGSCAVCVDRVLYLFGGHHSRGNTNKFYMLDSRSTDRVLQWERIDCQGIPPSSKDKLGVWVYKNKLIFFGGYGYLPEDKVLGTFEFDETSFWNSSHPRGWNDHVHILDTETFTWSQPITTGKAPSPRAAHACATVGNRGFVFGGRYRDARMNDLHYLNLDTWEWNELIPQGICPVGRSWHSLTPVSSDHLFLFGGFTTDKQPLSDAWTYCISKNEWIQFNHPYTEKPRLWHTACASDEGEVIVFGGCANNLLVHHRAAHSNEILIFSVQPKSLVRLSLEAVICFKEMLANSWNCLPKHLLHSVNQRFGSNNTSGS

KLHDC2^SBD [1] = molecular target: T2, KLHDC2^SBD (Homo sapiens, UniProt Q9Y2U9); experiment: TR-FRET assay, competition with di-Gly degron peptide binding to KLHDC2^SBD; parameters: KLHDC2^SBD (15-361) and its Avi-tagged counterpart were expressed in E. coli Rosetta2 cells; 6XHis-MBP (N, cleaved yes); made in house; host or cells: E. coli Rosetta2; conditions: inhibition of KLHDC2^SBD binding to a di-Gly degron peptide; read-out: TR-FRET IC50
T2 sequence (Q9Y2U9 15-361): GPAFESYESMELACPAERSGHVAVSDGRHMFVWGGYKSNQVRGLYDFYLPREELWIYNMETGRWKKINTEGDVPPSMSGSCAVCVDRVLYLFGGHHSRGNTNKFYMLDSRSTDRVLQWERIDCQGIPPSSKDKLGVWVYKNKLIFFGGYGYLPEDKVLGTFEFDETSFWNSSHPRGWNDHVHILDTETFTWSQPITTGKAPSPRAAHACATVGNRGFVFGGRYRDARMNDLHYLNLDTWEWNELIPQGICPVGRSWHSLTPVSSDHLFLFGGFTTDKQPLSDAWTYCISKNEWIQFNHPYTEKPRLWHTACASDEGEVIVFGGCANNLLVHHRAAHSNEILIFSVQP
Protocol: TR-FRET assays were carried out in black 384-well microtiter plates at a final volume of 20 μL per well. An assay cocktail was prepared as a mixture of 50 nM Biotin-KLHDC2 SBD, 20 nM AlexaFluor488-RIC8B peptide, 2.5 nM Tb-Streptavidin (ThermoFisher) in assay buffer (25 mM HEPES, 100 mM NaCl, 0.1% Triton X-100, 0.5 mM DTT, pH 7.5). The assay cocktail was incubated for thirty-minutes at room temperature and 20 μl distributed to assay plates. Molecules were distributed to the plates at the indicated concentration and the assay mixture was incubated for 1 h at room temperature prior to measuring the TR-FRET signal with a PHERAstar FS plate reader (BMG Labtech) equipped with modules for excitation at 337 nm and emissions at 490 and 520 nm. The integration start was set to 100 µs and the integration time to 200 µs. The number of flashes was fixed at 100. The ratio of 520/490 was used as TR-FRET signal in calculations. Assay endpoints were normalized to 100% (buffer only) and used for curve fitting in Prism.

KLHDC2^SBD [2] = molecular target: T2, KLHDC2^SBD; experiment: Thermal shift assay (Sypro Orange) probing stabilization of KLHDC2^SBD; assay type: binding; parameters: KLHDC2^SBD (15-361) and its Avi-tagged counterpart were expressed in E. coli Rosetta2 cells; 6XHis-MBP (N, cleaved yes); made in house; host or cells: E. coli Rosetta2; conditions: KLHDC2^SBD; ligand concentration not given
Protocol: In an attempt to identify non-peptide ligands that target KLHDC2’s substrate binding domain (SBD), we developed a thermal shift assay probing for stabilization of KLHDC2^SBD upon ligand addition. […] We utilized the thermal shift assay to screen ~ 9,000 molecules from a diverse collection of lead-like molecules (Figs. 1b, S1a, Supplementary Table 1).
Experimental compounds (200 nl each) were dispensed into a 384-well PCR plate using the Labcyte ECHO 655 T. The assay solution, comprising 0.5 μM KLHDC2, 25 mM HEPES, 200 mM NaCl, and 5% Sypro Orange at pH 7.5, was added to achieve a final volume of 20 μl. Negative control wells contained only DMSO, while positive control wells contained a di-Gly substrate peptide derived from SELK. Fluorescence measurements of Sypro Orange in each sample were taken using a Quantstudio 5 or Quantstudio 6, with temperatures ranging from 23 to 75 °C at a rate of 0.05 °C/s. Data analysis involved calculating thermal stability using the Boltzmann and first derivative minima equations in Thermo Scientific Protein Thermal Shift software v1.4. The resulting data were uploaded to CDD Vault for further analysis.
The 8892-compound lead-like one library was screened for its ability to stabilize KLHDC2 using a sypro orange-based thermal stability single-point assay.
Supplementary Ta b l e 1. Small molecule screening data
Category Parameter Description
Assay Ty p e o f assay Thermal Stability Screen
Primary measurement RFU of Sypro Orange
Key reagents Sypro Orange
Assay protocol Experimental compounds (200nl each) were dispensed into […]
a 384-well PCR plate using the Labcyte ECHO 655T. The […]
assay solution, comprising 0.5µM KLHDC2, 25mM HEPES,
200mM NaCl, and 5% Sypro Orange at pH 7.5, was added […]
to achieve a final volume of 20μl. Negative control wells […]
contained only DMSO, while positive control wells […]
contained peptide sub2. Fluorescence measurements of
Sypro Orange in each sample were taken using a
Quantstudio 5 or Quantstudio 6, with temperatures ranging […]
from 23 to 75°C at a rate of 0.05°C/second. Data analysis […]
involved calculating thermal stability using the Boltzmann […]
and first derivative minima equations in Thermo Scientific
Protein Thermal Shift software v1.4. The resulting data […]
were uploaded to CDD Vault for further analysis.
Library Library size 10041
Library composition The library was curated from compounds cherry picked […]
from St. Jude’s collection, representative of 80% of the […]
entire collection based on scaffold diversity (2D Molecular […]
fingerprinting based clustering) and structural properties: […]
lipophilicity (cLogP<3), size (MW 200-300 Da), and no […]
structural alerts (PAINS).
Source The compound collection was curated from multiple […]
vendors and stored on-site.
Screen Format The assay was completed in 26 384 well plates
Concentration(s) tested Compounds were tested at 100µM, and then a 16-point […]
serial dilution was performed on select compounds.
Plate controls DMSO as negative control and peptide sub2 as positive […]
Reagent/ compound dispensing system Multidrop Combi and Labcyte ECHO 655T […]
Detection instrument and software Quant Studio 5 and Quant Studio 6 and Thermo Scientific […]
Protein Thermal Shift software v1.4
Correction factors No correction factors were applied.

[3] = U2OS, 24 h, read-out: BRD3 level relative to DMSO (100%), U2OS KO/Rescue, 1µM, 24 h, Fig 6d
[4] = U2OS, 24 h, read-out: BRD2 level relative to DMSO (100%), U2OS KO/Rescue, 1µM, 24 h, Fig 6d
[5] = U2OS, 24 h, read-out: BRD3 level relative to DMSO (100%), U2OS KO/Rescue, 1µM, 24 h, Fig 6c
[6] = U2OS, 24 h, read-out: BRD2 level relative to DMSO (100%), U2OS KO/Rescue, 1µM, 24 h, Fig 6c

Chain of BRD2 (P25440 whole entry): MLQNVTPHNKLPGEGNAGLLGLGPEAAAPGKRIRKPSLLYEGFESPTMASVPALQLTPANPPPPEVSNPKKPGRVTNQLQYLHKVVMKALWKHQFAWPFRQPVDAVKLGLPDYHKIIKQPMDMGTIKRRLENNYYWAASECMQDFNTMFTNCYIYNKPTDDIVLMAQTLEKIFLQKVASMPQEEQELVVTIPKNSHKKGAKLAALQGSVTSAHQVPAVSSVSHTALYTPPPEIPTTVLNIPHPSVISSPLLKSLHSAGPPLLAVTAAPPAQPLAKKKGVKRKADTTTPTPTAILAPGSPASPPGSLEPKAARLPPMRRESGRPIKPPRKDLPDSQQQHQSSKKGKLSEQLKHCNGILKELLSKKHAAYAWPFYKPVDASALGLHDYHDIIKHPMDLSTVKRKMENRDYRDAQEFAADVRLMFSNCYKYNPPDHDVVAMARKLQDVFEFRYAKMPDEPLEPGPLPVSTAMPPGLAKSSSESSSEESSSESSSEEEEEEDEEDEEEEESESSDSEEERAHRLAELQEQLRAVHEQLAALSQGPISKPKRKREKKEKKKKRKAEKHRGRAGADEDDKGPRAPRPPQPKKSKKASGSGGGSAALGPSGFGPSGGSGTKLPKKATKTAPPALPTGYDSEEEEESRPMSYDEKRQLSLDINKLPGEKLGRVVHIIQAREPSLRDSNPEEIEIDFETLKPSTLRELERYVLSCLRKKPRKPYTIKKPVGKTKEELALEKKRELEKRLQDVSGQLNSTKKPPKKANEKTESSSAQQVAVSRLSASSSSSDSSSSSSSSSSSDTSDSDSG
Chain of BRD3 (Q15059 whole entry): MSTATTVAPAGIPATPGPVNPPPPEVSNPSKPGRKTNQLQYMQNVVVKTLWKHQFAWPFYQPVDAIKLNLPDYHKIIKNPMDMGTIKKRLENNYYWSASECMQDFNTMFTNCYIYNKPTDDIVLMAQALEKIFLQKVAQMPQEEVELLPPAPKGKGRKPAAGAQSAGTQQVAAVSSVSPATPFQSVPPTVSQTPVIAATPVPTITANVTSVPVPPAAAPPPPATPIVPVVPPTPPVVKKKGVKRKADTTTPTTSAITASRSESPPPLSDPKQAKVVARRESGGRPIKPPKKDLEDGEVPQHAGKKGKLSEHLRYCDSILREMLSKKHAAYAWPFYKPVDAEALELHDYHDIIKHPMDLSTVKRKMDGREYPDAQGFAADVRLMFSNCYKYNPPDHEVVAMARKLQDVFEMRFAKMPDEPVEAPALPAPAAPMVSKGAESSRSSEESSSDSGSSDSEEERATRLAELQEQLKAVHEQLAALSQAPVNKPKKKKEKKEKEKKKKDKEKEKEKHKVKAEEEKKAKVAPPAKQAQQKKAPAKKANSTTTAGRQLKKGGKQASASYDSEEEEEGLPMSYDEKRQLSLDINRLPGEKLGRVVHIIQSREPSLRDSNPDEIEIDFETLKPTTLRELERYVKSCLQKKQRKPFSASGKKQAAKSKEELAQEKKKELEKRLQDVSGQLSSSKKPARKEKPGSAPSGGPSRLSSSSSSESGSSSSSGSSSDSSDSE

Compound: NS(=O)(=O)OC[C@@H]1C[C@@H](n2ccc3c(N[C@H]4CCc5ccccc54)ncnc32)C[C@@H]1O [MLN4924, reference compound]
BRD4 level, Western blot quantification (DMSO = 100) (BRD4; Fig 6d): 136.422 and 116.069
BRD4 level relative to DMSO (100%) (BRD4; Fig 6d): 130 +/- 14%
remaining activity at 1 µM (BRD3; [3]): 120 ± 23%
remaining activity at 1 µM (BRD2; [4]): 170 ± 21%
KLHDC2 level, Western blot quantification (DMSO = 100) (KLHDC2; Fig 6d): 3372.82 and 2800.12
KLHDC2 level relative to DMSO (100%) (KLHDC2; 1µM, 24 h, Fig 6d): 3090 +/- 404%

Compound: O=C(O)CNC(=O)Cc1csc(-c2cccc3ccncc23)n1 [SJ46412]
IC50 (KLHDC2^SBD [1]): 20.3 ± 0.8 µM
Thermal shift ΔTm (KLHDC2^SBD [2]): 1.8 ± 0.08 °C

Compound: COc1ccc2ccc(-c3nc(CC(=O)NCC(=O)O)cs3)cc2c1 [SJ46417]
IC50 (KLHDC2^SBD [1]): 1.7 ± 0.06 µM
Thermal shift ΔTm (KLHDC2^SBD [2]): 4.3 ± 0.1 °C

Compound: Cc1sc2c(c1C)C(c1ccc(Cl)cc1)=N[C@@H](CC(=O)N1CCN(CCOc3cccc4ccc(-c5nc(CC(=O)NCC(=O)OCc6ccccc6)cs5)cc34)CC1)c1nnc(C)n1-2 [SJ48087]
BRD4 level relative to DMSO (100%) (BRD4; Fig 6c): 101 +/- 11%
remaining activity at 1 µM (BRD3; [5]): 89 ± 7.3%
remaining activity at 1 µM (BRD2; [6]): 90 ± 4%
KLHDC2 level relative to DMSO (100%) (KLHDC2; 1µM, 24 h, Fig 6c): 221 +/- 27%

Compound: Cc1sc2c(c1C)C(c1ccc(Cl)cc1)=N[C@@H](CC(=O)N1CCN(CCOc3cccc4ccc(-c5nc(CC(=O)NCC(=O)OC6CCCC6)cs5)cc34)CC1)c1nnc(C)n1-2 [SJ48088]
BRD4 level, Western blot quantification (DMSO = 100) (BRD4; Fig 6c): 85.9664 and 71.4338
BRD4 level, Western blot quantification (DMSO = 100) (BRD4; Fig 6d): 72.2613 and 75.636
BRD4 level relative to DMSO (100%) (BRD4; Fig 6c): 79 +/- 9.6%
BRD4 level relative to DMSO (100%) (BRD4; Fig 6d): 74 +/- 2.5%
remaining activity at 1 µM (BRD3; U2OS, 24 h, read-out: BRD3 level relative to DMSO (100%), U2OS KO/Rescue, 1µM + co-dosing 1µM MLN4924, 24 h, Fig 6d): 120 ± 6.2%
remaining activity at 1 µM (BRD3; [5]): 46 ± 1.5%
remaining activity at 1 µM (BRD3; [3]): 24 ± 4.6%
remaining activity at 1 µM (BRD3; read-out: BRD3 level, Western blot quantification (DMSO = 100), Fig 6c, 1 uM): 47.1%
remaining activity at 1 µM (BRD3; read-out: BRD3 level, Western blot quantification (DMSO = 100), Fig 6d, 1 uM): 20.7%
remaining activity at 1 µM (BRD2; U2OS, 24 h, read-out: BRD2 level relative to DMSO (100%), U2OS KO/Rescue, 1µM + co-dosing 1µM MLN4924, 24 h, Fig 6d): 270 ± 67%
remaining activity at 1 µM (BRD2; [6]): 83 ± 9.7%
remaining activity at 1 µM (BRD2; [4]): 78 ± 7.4%
remaining activity at 1 µM (BRD2; read-out: BRD2 level, Western blot quantification (DMSO = 100), Fig 6c, 1 uM): 75.6%
remaining activity at 1 µM (BRD2; read-out: BRD2 level, Western blot quantification (DMSO = 100), Fig 6d, 1 uM): 73.2%
KLHDC2 level, Western blot quantification (DMSO = 100) (KLHDC2; Fig 6c): 472.526 and 740.895
KLHDC2 level, Western blot quantification (DMSO = 100) (KLHDC2; Fig 6d): 1961.3 and 1506.23
KLHDC2 level relative to DMSO (100%) (KLHDC2; 1µM + co-dosing 1µM MLN4924, 24 h, Fig 6d): 4837 +/- 513%
KLHDC2 level relative to DMSO (100%) (KLHDC2; 1µM, 24 h, Fig 6c): 606 +/- 190%
KLHDC2 level relative to DMSO (100%) (KLHDC2; 1µM, 24 h, Fig 6d): 1733 +/- 321%

More lines, in order of falling IC50 (KLHDC2^SBD [1]), values ahead:

IC50 (KLHDC2^SBD [1]): 10.3 ± 0.2 µM
Thermal shift ΔTm (KLHDC2^SBD [2]): 3.9 ± 0.07 °C
Compound: COc1ccc2cc(-c3nc(CC(=O)NCC(=O)O)cs3)ccc2c1 [SJ46413]

IC50 (KLHDC2^SBD [1]): 9.8 ± 0.1 µM
Thermal shift ΔTm (KLHDC2^SBD [2]): 3.7 ± 0.05 °C
Compound: O=C(O)CNC(=O)Cc1csc(-c2cccc3ccccc23)n1 [SJ46415]

IC50 (KLHDC2^SBD [1]): 8.2 ± 0.3 µM
Thermal shift ΔTm (KLHDC2^SBD [2]): 1.3 ± 0.5 °C
Compound: O=C(O)CNC(=O)Cc1csc(-c2ccc3c(c2)NCCO3)n1 [SJ49356]

IC50 (KLHDC2^SBD [1]): 7.1 ± 0.2 µM
Thermal shift ΔTm (KLHDC2^SBD [2]): 2.7 ± 0.3 °C
Compound: O=C(O)CNC(=O)Cc1csc(-c2cccc3cccnc23)n1 [SJ46414]

IC50 (KLHDC2^SBD [1]): 1.8 ± 0.1 µM
Thermal shift ΔTm (KLHDC2^SBD [2]): 6.0 ± 0.1 °C
Compound: O=C(O)CNC(=O)Cc1csc(-c2ccc3ccccc3c2F)n1 [SJ46416]
